Experimental data published in patent publication US20230242496A1, “SOX11 INHIBITORS FOR TREATING MANTLE CELL LYMPHOMA” (Icahn School of Medicine At Mount Sinai, priority 2020, published 2023).

Each molecule was assayed against T1, (His)6-SOX11-DBD protein (Homo sapiens, UniProt P35716) (assay: Surface Plasmon Resonance (SPR) assay). Conditions: immobilized recombinant (His)6-SOX11-DBD, 25° C., compounds 5-40 μM, mean of three experiments.
T1 construct: Recombinant (His)6-SOX11-DBD protein was immobilized
T1 sequence (P35716 49-117 limits assumed): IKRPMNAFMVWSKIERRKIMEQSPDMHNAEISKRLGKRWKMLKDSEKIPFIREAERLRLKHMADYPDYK
Format: binding
Method: Surface Plasmon Resonance (SPR) Assay
Recombinant (His)6-SOX11-DBD protein was immobilized at a flow rate of 10 μl/min for 180 seconds to the right channel of a gold-coated SCR NiHC200M sensor chip (XanTec bioanalytics) placed in a Reichert 2SPR instrument (Reichert Technologies). The left channel, without immobilized protein, was used as a reference. […] Compounds flowed sequentially from the left to the right channel over the prepared sensor chip surface. 120 seconds association phase with each compound concentration was followed by 300 seconds dissociation phase with the assay buffer alone. The ka, kd, and KD values were determined from the sensograms for at least 3 concentrations of each compound by curve fitting the data using Reichert's TraceDrawer software. The mean KD value for each compound was calculated from three separate experiments.

Row | Structure (SMILES) | Kd [µM]
1 | CN(c1ccccc1Cl)S(=O)(=O)c1ccc(NC(=O)c2ccc3c(c2)CCCS3)cc1 | 2.39
2 | CN(Cc1cccc(NC(=O)c2ccc3c(c2)CCCS3)c1)c1ccccc1 | 37.5
3 | CC(=O)N1CCN(S(=O)(=O)c2cccc(NC(=O)c3ccc4c(c3)CCCS4)c2)CC1 | 15.4
4 | CC(=O)N1CCN(S(=O)(=O)c2ccc(NC(=O)c3ccc4snnc4c3)cc2)CC1 | 16.9
5 | CC(C)N1C(=O)CSc2ccc(C(=O)Nc3ccc(S(=O)(=O)N4CCCCC4)cc3)cc21 | 6.37
6 | CN(c1ccccc1)S(=O)(=O)c1ccc(NC(=O)c2ccc(SCC(=O)O)cc2)cc1 | 11
7 | O=C(Nc1cccc(OCc2ccccc2)c1)c1ccc2oc(=O)[nH]c2c1 | 12.4
8 | Cc1ccccc1N(C)S(=O)(=O)c1ccc(NC(=O)c2ccc3c(c2)CCCS3)cc1 | 10.3
9 | O=C1CSc2ccc(C(=O)Nc3ccc(CNc4ccccc4)cc3)cc2N1 | 1.74
10 | Nc1ccccc1CC(=O)Nc1cccc(C(=O)Nc2ccc(CN3CCCC3)cc2)c1 | 15.4
11 | O=C(Nc1ccc(S(=O)(=O)N2CCCCC2)cc1)c1ccc2c(c1)N(Cc1ccccc1)C(=O)CS2 | 15.7
12 | Nc1cccc(Nc2ccnc(Nc3cccc(S(=O)(=O)N4CCCC4)c3)n2)c1 | 118
13 | Cc1cc(OCc2ccccc2)ccc1CNc1ccc2cncnc2c1 | 9.24
14 | CC1Sc2ccc(C(=O)Nc3cccc(OCc4ccc(OS(=O)(=O)F)cc4)c3)cc2NC1=O (stereo not shown) | 19.1
15 | Cc1cccc(COc2ccc(CNc3ccc4cncnc4c3)cc2)c1 | 7.63
16 | CN(c1ccccc1)S(=O)(=O)c1ccc(NC(=O)c2ccc3c(c2)CCCS3)cc1Cl | 10.2
17 | Cc1ccc(N(C)S(=O)(=O)c2ccc(NC(=O)c3ccc4c(c3)CCCS4)cc2)cc1 | 2.73
18 | CN(Cc1ccc(NC(=O)c2ccc3c(c2)N(C)C(=O)CS3)cc1)c1ccccc1 | 8.1
19 | CCN(c1ccccc1)S(=O)(=O)c1ccc(NC(=O)c2ccc3c(c2)CCCS3)cc1 | 130
20 | Clc1ccccc1COc1ccc(CNc2ccc3cncnc3c2)cc1 | 7.88
21 | O=C(Nc1cccc(CNc2ccccc2)c1)c1ccc2oc(=O)[nH]c2c1 | 18.2
22 | CCCCN1C(=O)CSc2ccc(C(=O)Nc3ccc(S(=O)(=O)N4CCCCC4)cc3)cc21 | 25.2
23 | CN(Cc1ccc(NC(=O)c2ccc3oc(=O)[nH]c3c2)cc1)c1ccccc1 | 15.6
24 | CC1Sc2ccc(C(=O)Nc3cccc(OCc4cccc(OS(=O)(=O)F)c4)c3)cc2NC1=O (stereo not shown) | 16.9

Row | Structure (SMILES) | Kd [µM]
25 | Cc1ccc(C(=O)Nc2ccc(S(=O)(=O)Nc3ccccc3)cc2)cc1NC(=O)Cc1cc(=O)[nH]c(=O)[nH]1 | 61.9
26 | CN(c1cccc(Cl)c1)S(=O)(=O)c1ccc(NC(=O)c2ccc3c(c2)CCCS3)cc1 | 14.2
27 | CC(=O)NCc1cccc(Nc2ccnc(Nc3cccc(S(=O)(=O)N4CCCC4)c3)n2)c1 | 38
28 | CN(Cc1ccccc1)c1ccc(CNc2ccc3cccnc3c2)cc1 | 9.27
29 | COc1cccc(NC(=O)Nc2cc(Nc3cccc(S(=O)(=O)N4CCCC4)c3)ncn2)c1 | 16.5
30 | CN1C(=O)CSc2ccc(C(=O)Nc3ccc(CN4CCCCC4)cc3)cc21 | 129
31 | CC1Sc2ccc(C(=O)Nc3ccc(OCc4cccc(S(=O)(=O)F)c4)cc3)cc2NC1=O (stereo not shown) | 7.17
32 | CN1C(=O)COc2ccc(C(=O)Nc3ccc(S(=O)(=O)N4CCCCCC4)cc3)cc21 | 4.94
33 | CN(Cc1ccc(NC(=O)c2ccc3nn[nH]c3c2)cc1)c1ccccc1 | 2.9
34 | O=C(Cc1ccccc1[N+](=O)[O-])Nc1cccc(C(=O)Nc2ccc(CN3CCCC3)cc2)c1 | 247
35 | Clc1cc(CNc2ccc3cncnc3c2)ccc1OCc1ccccc1 | 4.01
36 | CN1C(=O)CSc2ccc(C(=O)Nc3ccc(S(C)(=O)=O)c(Cl)c3)cc21 | 141
37 | c1ccc(OCc2ccc(CNc3ccc4cncnc4c3)cc2)cc1 | 12
38 | CC(=O)NCc1cccc(Nc2nc(Nc3cccc(S(=O)(=O)N4CCCC4)c3)ncc2C)c1 | 163
39 | c1ccc(CNc2ccc(CNc3ccc4cncnc4c3)cc2)cc1 | 30.6
40 | Cc1cnc(Nc2cccc(S(=O)(=O)N3CCCC3)c2)nc1Nc1cccc(N)c1 | 105
41 | O=C(Nc1ccc(S(=O)(=O)N2CCCCC2)cc1)c1ccc2c(c1)N(c1ccccc1)C(=O)CS2 | 6.67
42 | CN(c1ccccc1)S(=O)(=O)c1ccc(NC(=O)c2ccc3c(c2)CCCS3)cc1C(F)(F)F | 5.62
43 | FC(F)(F)c1cc(CNc2ccc3cncnc3c2)ccc1OCc1ccccc1 | 4.89
44 | Cc1cc(C(=O)Nc2ccc(S(=O)(=O)Nc3ccccc3)cc2)nc(NC2CCC(N)CC2)n1 (stereo not shown) | 94.6
45 | CN(c1ccccc1)S(=O)(=O)c1ccc(NC(=O)c2ccc(/C=C/C(=O)O)cc2)cc1 | 106
46 | Cc1cccc(N(C)S(=O)(=O)c2ccc(NC(=O)c3ccc4c(c3)CCCS4)cc2)c1 | 4.55
47 | c1ncc2ccc(NCc3ccc(OCC4CCCCC4)cc3)cc2n1 | 8.28
48 | Clc1cccc(COc2ccc(CNc3ccc4cncnc4c3)cc2)c1 | 3.28

Row | Structure (SMILES) | Kd [µM]
49 | CN(c1ccc(Cl)cc1)S(=O)(=O)c1ccc(NC(=O)c2ccc3c(c2)CCCS3)cc1 | 10.8
50 | CN(Cc1cccc(NC(=O)c2ccc3snnc3c2)c1)c1ccccc1 | 38.8
51 | NCCc1nc2ccc(C(=O)Nc3ccc(S(=O)(=O)Nc4ccccc4)cc3)cc2[nH]1 | 79.3
52 | CN(c1ccccc1)S(=O)(=O)c1ccc(NC(=O)c2ccc3c(c2)CCCS3)cc1 | 21.7
53 | CC1Sc2ccc(C(=O)Nc3cccc(S(=O)(=O)F)c3)cc2NC1=O (stereo not shown) | 35.5
54 | c1ncc2ccc(NCc3ccc(OCC4CCOCC4)cc3)cc2n1 | 24.4
55 | Cc1cc(C(=O)Nc2ccc(S(=O)(=O)Nc3ccccc3)cc2)nc(NCCN)n1 | 22.1
56 | CCN1C(=O)CSc2ccc(C(=O)Nc3ccc(S(=O)(=O)N4CCCCC4)cc3)cc21 | 7.52
57 | CN(Cc1ccc(NC(=O)c2ccc3c(c2)CCCS3)cc1)c1ccccc1 | 11.5
58 | O=C(Nc1ccc(CNc2ccccc2)cc1)c1ccc2oc(=O)[nH]c2c1 | 7.91
59 | O=C(Nc1cccc(CN2CCCCC2)c1)c1ccc2c(c1)CCCS2 | 24
60 | O=C(Nc1ccc(CNc2ccccc2)cc1)c1ccc2nncn2c1 | 46.1
61 | Cc1cc(C(=O)Nc2ccc(OCc3ccccc3)cc2)nc(NCCN)n1 | 122
62 | Cc1ccc(C(=O)Nc2ccc(S(=O)(=O)Nc3ccccc3)cc2)cc1NC(=O)CCc1c[nH]cn1 | 72.1
63 | CN1C(=O)CSc2ccc(C(=O)Nc3ccc(S(C)(=O)=O)cc3)cc21 | 82.1
64 | CN(Cc1ccc(NC(=O)c2ccc3c(c2)NC(=O)CS3)cc1)c1ccccc1 | 24.8
65 | O=C1COc2ccc(C(=O)Nc3ccc(CNc4ccccc4)cc3)cc2N1 | 5.28
66 | CN(Cc1cccc(NC(=O)c2ccc3oc(=O)[nH]c3c2)c1)c1ccccc1 | 13.6
67 | Cc1ccccc1COc1ccc(CNc2ccc3cncnc3c2)cc1 | 11.1
68 | CN(Cc1ccccc1)c1ccc(CNc2ccc3cncnc3c2)cc1 | 20.7
69 | CC(=O)N1CCN(S(=O)(=O)c2ccc(NC(=O)c3ccc4c(c3)CCCS4)cc2)CC1 | 24.1
70 | Cc1cc(Nc2cc(C(=O)Nc3ccc(S(=O)(=O)Nc4ccccc4)cc3)ccc2C)nc(N)n1 | 80.7
71 | CC(=O)NCCNc1nc(C)cc(C(=O)Nc2ccc(S(=O)(=O)Nc3ccccc3)cc2)n1 | 89.6

The molecules below were run on Jeko-1 (SOX11+) (assay: Cell viability assay (CellTiter-Blue resazurin reduction)). Conditions: Homo sapiens, JeKo-1, 72 h, JeKo-1 cells, 0-40 μM.
Format: cell-based
Method: Cell viability was determined by a fluorometric resazurin reduction method (CellTiter-Blue; Promega, Madison, Wis.) following the manufacturer's instructions. […] Cells were incubated for 72 hours. After incubation, 20 μl CellTiter-Blue Cell was added to each well and incubated for another 2 hours. […] The number of viable cells in each treated well was calculated, based on the linear least squares regression of the standard curve (OD vs. cell concentration). The viability of cells treated with compounds was normalized to the viability of cells treated with 0.2% Dimethyl sulfoxide (DMSO). Cell counts were confirmed with Trypan Blue Exclusion Assay on the Countess automated cell counter (Invitrogen) according to the manufacturer's specifications. The average and mean standard deviation were calculated from three separate experiments. IC50 values were calculated using the GraphPad Prism (version 4.00) based on a sigmoidal dose-response equation.

Row | Structure (SMILES) | IC50 [µM]
72 | CC1Sc2ccc(C(=O)Nc3ccc(S(=O)(=O)Nc4ccccc4)cc3C(F)(F)F)cc2NC1=O (stereo not shown) | 5
73 | CC1Sc2ccc(C(=O)Nc3cccc(S(=O)(=O)Nc4cccc(C(F)(F)F)c4)c3)cc2NC1=O (stereo not shown) | 10
74 | Cc1cc(S(=O)(=O)Nc2ccccc2)ccc1NC(=O)c1ccc2c(c1)NC(=O)C(C)S2 (stereo not shown) | 20
75 | CC1Sc2ccc(C(=O)Nc3ccc(S(=O)(=O)Nc4ccccc4)cc3)cc2NC1=O (stereo not shown) [drawing 599] | 12.5
76 | C[C@H]1Sc2ccc(C(=O)Nc3ccc(S(=O)(=O)Nc4ccccc4)cc3)cc2NC1=O | 12.5
77 | CC1Sc2ccc(C(=O)Nc3ccc(S(=O)(=O)Nc4ccccc4F)cc3)cc2NC1=O (stereo not shown) | 15
78 | O=C(Nc1ccc(S(=O)(=O)Nc2ccccc2)cc1)c1ccc2nn[nH]c2c1 | 12

Same assay, conditions: Homo sapiens, JeKo-1, 72 h, JeKo-1 cells, 20 μM compound, normalized to 0.2% DMSO

Row | Structure (SMILES) | viability at 20 µM [%]
79 | CC1Sc2ccc(C(=O)Nc3ccc(S(=O)(=O)Nc4ccccc4)cc3C(F)(F)F)cc2NC1=O (stereo not shown) | 1.38
80 | CC1Sc2ccc(C(=O)Nc3cccc(S(=O)(=O)Nc4cccc(C(F)(F)F)c4)c3)cc2NC1=O (stereo not shown) | 16.8
81 | CC1Sc2ccc(C(=O)Nc3ccc(OCc4ccccc4C(F)(F)F)cc3)cc2NC1=O (stereo not shown) | 106
82 | Cc1cc(S(=O)(=O)Nc2ccccc2)ccc1NC(=O)c1ccc2c(c1)NC(=O)C(C)S2 (stereo not shown) | 51.1
83 | CC1Sc2ccc(C(=O)Nc3ccc(S(=O)(=O)Nc4ccccc4F)cc3)cc2NC1=O (stereo not shown) | 21.2
84 | O=C(Nc1ccc(S(=O)(=O)Nc2ccccc2)cc1)c1ccc2nn[nH]c2c1 | 5.75
85 | CC1Sc2ccc(C(=O)Nc3cccc(OCc4ccccc4C(F)(F)F)c3)cc2NC1=O (stereo not shown) | 87.1
86 | CC1Sc2ccc(C(=O)Nc3ccc(OCc4ccccc4)cc3)cc2NC1=O (stereo not shown) | 104

Same assay, conditions: JeKo-1 cells, 20 μM compound, 72 hours, normalized to 0.2% DMSO; 20 µM

Row | Structure (SMILES) | Jeko-1 Viability at 20 μM (%)
87 | CC1Sc2ccc(C(=O)Nc3ccc(S(=O)(=O)Nc4ccccc4)cc3)cc2NC1=O (stereo not shown) [drawing 599] | 6.36
88 | O=C1CSc2ccc(C(=O)Nc3ccc(S(=O)(=O)Nc4ccccc4)cc3)cc2N1 [drawing 503] | 2.73
89 | O=C1CSc2ccc(C(=O)Nc3ccc(S(=O)(=O)Nc4ccccc4)cc3)cc2N1 [drawing 513] | 79.21

Same assay, conditions: JeKo-1 cells, 72 hours, 0-40 μM

Row | Structure (SMILES) | IC50 [µM]
90 | O=C1CSc2ccc(C(=O)Nc3ccc(S(=O)(=O)Nc4ccccc4)cc3)cc2N1 [drawing 503] | 7.5
91 | O=C1CSc2ccc(C(=O)Nc3ccc(S(=O)(=O)Nc4ccccc4)cc3)cc2N1 [drawing 513] | > 20
